Blank lines part the entries; values can stand above or below the molecule they belong to.
What was measured:
GRPR = target: T1, GRPR (Homo sapiens, UniProt P30550); test: In vitro competition binding assay, displacement of [^125I-Tyr^4]bombesin on GRPR-expressing PC-3 cells; details: n = 2-3, read-out: Binding affinities Ki Mean
T1 construct: endogenous in cells; host or cells: PC-3 prostate cancer cells
Experimental: PC-3 cells were seeded at 2×10^5 cells/well in 24-well poly-D-lysine plates 24-48 hours prior to the experiment. The growth medium was replaced by 400 μL of reaction medium (RPMI 1640 containing 2 mg/mL BSA, 4.8 mg/mL HEPES, 1 U/mL penicillin G and 1 μg/mL streptomycin). Cells were incubated for 30-60 min at 37° C. […] The cells were incubated with moderate agitation for 1 h at 27° C., washed twice with ice-cold PBS, harvested by trypsinization, and measured for radioactivity on the gamma counter. Data were analyzed using nonlinear regression (one binding site model for competition assay) with GraphPad Prism 8.
In vitro competition binding assays were performed according to the procedure outlined in Example 1.

in vivo = details: male, NRG, mouse, iv, total radioactivity
Experimental: (§1) All imaging and biodistribution studies were performed using male NOD.Cg-Rag1^tm1MoM II2rg^tm1WI/SzJ (NRG) mice and conducted according to the guidelines established by the Canadian Council on Animal Care and approved by Animal Ethics Committee of the University of British Columbia. For tumor inoculations, mice were anesthetized by inhalation with 2% isoflurane in oxygen and implanted subcutaneously with 5×10^6 PC-3 cells below the left shoulder. Imaging and biodistribution studies were performed only after tumors grew to 5-8 mm in diameter.
(§2) For PET/CT imaging studies, ˜3-4 MBq of the ^68Ga-labeled tracer was injected through the tail vein. Mice were allowed to recover and roam freely in the cages after injecting the tracer. At 45 min post-injection (p.i.), mice were sedated again and positioned on the scanner. First, a 10 min CT scan was conducted for localization and attenuation correction for reconstruction of PET images, before a 10 min PET image was acquired. Heating pads were used during the entire procedure to keep the mice warm. For ex vivo biodistribution studies, mice were injected with ˜1.5-3 MBq of the ^68Ga-labeled tracer. At 1 h p.i., mice were euthanized, blood was drawn from heart, and organs/tissues of interest were collected, rinsed with PBS, blotted dry, weighed, and counted using an automated gamma counter. The uptake in each organ/tissue was normalized to the injected dose and expressed as the percentage of the injected dose per gram of tissue (% ID/g).
(§3) All imaging and biodistribution studies were performed using male NOD.Cg-Rag1tm1Mom II2rgtm1WjI/SzJ (NRG) mice and conducted according to the guidelines established by the Canadian Council on Animal Care and approved by Animal Ethics Committee of the University of British Columbia. For tumor inoculations, mice were anesthetized by inhalation with 2% isoflurane in oxygen and implanted subcutaneously with 5×10^6 PC-3 cells below the left shoulder. Imaging and biodistribution studies were performed only after tumors grew to 5-8 mm in diameter.
(§4) For PET/CT imaging studies, ˜5 MBq of the ^68Ga-labeled tracer was injected through the tail vein. Mice were allowed to recover and roam freely in the cages after injecting the tracer. At 45 min post-injection (p.i.), mice were sedated again and positioned on the scanner. First, a 10 min CT scan was conducted for localization and attenuation correction for reconstruction of PET images, before a 10 min PET image was acquired. Heating pads were used during the entire procedure to keep the mice warm. For ex vivo biodistribution studies, mice were injected with ˜3 MBq of the 68Ga-labeled tracer. At 1 h p.i., mice were euthanized, blood was drawn from heart, and organs/tissues of interest were collected, rinsed with PBS, blotted dry, weighed, and counted using an automated gamma counter.

[1] = Ex vivo biodistribution in PC-3 tumor-bearing mice; details: male, NRG, mouse, seminal, iv, total radioactivity, Biodistribution Seminal Mean, 1 h post-injection, mice bearing PC-3 tumor xenografts, n = 4
Experimental: as §1, §2, §3, §4

T1 sequence (P30550 whole entry): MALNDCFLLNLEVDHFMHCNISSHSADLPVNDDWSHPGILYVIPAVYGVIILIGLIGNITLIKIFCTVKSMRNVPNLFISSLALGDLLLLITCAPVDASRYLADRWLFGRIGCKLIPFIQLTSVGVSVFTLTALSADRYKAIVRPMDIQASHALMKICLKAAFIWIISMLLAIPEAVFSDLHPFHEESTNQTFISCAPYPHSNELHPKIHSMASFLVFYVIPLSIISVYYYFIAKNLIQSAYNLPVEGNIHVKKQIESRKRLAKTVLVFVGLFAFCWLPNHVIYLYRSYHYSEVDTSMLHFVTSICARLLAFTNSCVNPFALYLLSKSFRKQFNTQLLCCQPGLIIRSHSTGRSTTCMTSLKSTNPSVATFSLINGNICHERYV

SMILES: CC(C)C[C@H](NC(=O)[C@H](Cc1cnc[nH]1)NC(=O)CNC(=O)[C@@H](NC(=O)[C@H](C)NC(=O)[C@H](Cc1c[nH]c2ccccc12)NC(=O)[C@H](CCC(N)=O)NC(=O)[C@H](N)Cc1ccccc1)C(C)(C)C)C(=O)N1CSC[C@H]1C(N)=O [LW01080, D-Phe-Gln-Trp-Ala-Tle-Gly-His-Leu-Thz-NH2]
Ki (GRPR): 0.00356 µM

SMILES: CC(C)C[C@H](NC(=O)[C@H](Cc1cnc[nH]1)N(C)C(=O)CNC(=O)[C@@H](NC(=O)[C@H](C)NC(=O)[C@H](Cc1c[nH]c2ccccc12)NC(=O)[C@H](CCC(N)=O)NC(=O)[C@H](N)Cc1ccccc1)C(C)C)C(=O)N1CSC[C@H]1C(N)=O [LW01088, D-Phe-Gln-Trp-Ala-Val-Gly-NMe-His-Leu-Thz-NH2]
Ki (GRPR): 0.009 µM

SMILES: CC(C)C[C@H](NC(=O)[C@H](Cc1cnc[nH]1)NC(=O)CNC(=O)[C@@H](NC(=O)[C@H](C)NC(=O)[C@H](Cc1cn(C)c2ccccc12)NC(=O)[C@H](CCC(N)=O)NC(=O)[C@H](N)Cc1ccccc1)C(C)C)C(=O)N1CSC[C@H]1C(N)=O [LW01136]
Ki (GRPR): 0.0357 µM

SMILES: CC(C)C[C@H](NC(=O)[C@H](Cc1c[nH]cn1)NC(=O)CNC(=O)[C@@H](NC(=O)[C@H](C)NC(=O)[C@H](Cc1c[nH]c2ccccc12)NC(=O)[C@H](CCC(N)=O)NC(=O)[C@H](N)Cc1ccccc1)C1CC1)C(=O)N1CSC[C@H]1C(N)=O [LW02016]
Ki (GRPR): 0.202 µM

SMILES: CC(C)C[C@H](NC(=O)[C@H](Cc1c[nH]cn1)NC(=O)CNC(=O)[C@@H](NC(=O)[C@H](C)NC(=O)[C@H](Cc1c[nH]c2ncccc12)NC(=O)[C@H](CCC(N)=O)NC(=O)[C@H](N)Cc1ccccc1)C(C)C)C(=O)N1CSC[C@H]1C(N)=O [LW02013]
Ki (GRPR): 0.166 µM

SMILES: CC(C)C[C@H](NC(=O)[C@H](Cc1c[nH]cn1)NC(=O)CNC(=O)[C@@H](NC(=O)[C@H](C)NC(=O)[C@H](Cc1c[nH]c2ccccc12)NC(=O)[C@H](CCC(N)=O)NC(=O)[C@@H](Cc1ccccc1)NC(=O)CN1CCC(NC(=O)CN2CCN(CC(=O)O)CCN(CC(=O)O)CCN(CC(=O)O)CC2)CC1)C(C)(C)C)C(=O)N1CSC[C@H]1C(N)=O [^68Ga-LW01108, metal not drawn]
tissue uptake at 1 h (in vivo; Biodistribution Adrenal Mean): 1.51 %ID/g | tissue uptake at 1 h (in vivo; Biodistribution Blood Mean): 0.59 %ID/g | tissue uptake at 1 h (in vivo; Biodistribution Bone Mean): 0.15 %ID/g | tissue uptake at 1 h (in vivo; Biodistribution Brain Mean): 0.02 %ID/g | tissue uptake at 1 h (in vivo; Biodistribution Fat Mean): 0.06 %ID/g | tissue uptake at 1 h (in vivo; Biodistribution Heart Mean): 0.18 %ID/g | tissue uptake at 1 h (in vivo; Biodistribution Kidneys Mean): 2.47 %ID/g | tissue uptake at 1 h (in vivo; Biodistribution Large Intestine Mean): 1.31 %ID/g | tissue uptake at 1 h (in vivo; Biodistribution Liver Mean): 0.35 %ID/g | tissue uptake at 1 h (in vivo; Biodistribution Lungs Mean): 0.49 %ID/g | tissue uptake at 1 h (in vivo; Biodistribution Muscle Mean): 0.17 %ID/g | tissue uptake at 1 h (in vivo; Biodistribution PC3 tumor Mean): 5.9 %ID/g | tissue uptake at 1 h (in vivo; Biodistribution Pancreas Mean): 9.32 %ID/g | tissue uptake at 1 h (in vivo; Biodistribution Small Intestine Mean): 2.29 %ID/g | tissue uptake at 1 h (in vivo; Biodistribution Spleen Mean): 0.4 %ID/g | tissue uptake at 1 h (in vivo; Biodistribution Stomach Mean): 0.89 %ID/g | tissue uptake at 1 h (in vivo; Biodistribution Testes Mean): 0.16 %ID/g | tissue uptake at 1 h [1]: 0.11 %ID/g

The next lines start with the values.

Ki (GRPR): 0.0179 µM
SMILES: CC(C)C[C@H](NC(=O)[C@H](Cc1c[nH]cn1)NC(=O)CNC(=O)[C@@H](NC(=O)[C@H](C)NC(=O)[C@H](Cc1c[nH]c2ccc(F)cc12)NC(=O)[C@H](CCC(N)=O)NC(=O)[C@H](N)Cc1ccccc1)C(C)C)C(=O)N1CSC[C@H]1C(N)=O [LW01166]

Ki (GRPR): 0.0434 µM
SMILES: CC(C)C[C@H](NC(=O)[C@H](Cc1c[nH]cn1)NC(=O)CNC(=O)[C@@H](NC(=O)[C@H](C)NC(=O)[C@H](Cc1c[nH]c2cccc(F)c12)NC(=O)[C@H](CCC(N)=O)NC(=O)[C@H](N)Cc1ccccc1)C(C)C)C(=O)N1CSC[C@H]1C(N)=O [LW01180]

Ki (GRPR): > 0.4 µM
SMILES: CC(C)C[C@@H](CN1CSC[C@H]1C(N)=O)NC(=O)[C@H](Cc1c[nH]cn1)NC(=O)CNC(=O)[C@@H](NC(=O)[C@H](C)NC(=O)[C@H](Cc1c[nH]c2ccccc12)NC(=O)[C@H](CCC(N)=O)NC(=O)[C@H]1Cc2c([nH]c3ccccc23)CN1C(=O)CN1CCC(NC(=O)CN2CCN(CC(=O)O)CCN(CC(=O)O)CCN(CC(=O)O)CC2)CC1)C(C)C [LW01061, DOTA-Pip-D-Tpi-Gln-Trp-Ala-Val-Gly-His-Leu-ψ-Thz-NH2]
